# “And” between values parts separate entries of the source, which are not always exact repeats. Equal values may be shown once. “Also recorded” adds a separate entry of the source.
# How the values were obtained:
# [1] = Salmon calcitonin/PTS893 monkey study: urinalysis; conditions: urine
# [2] = tested on: hyperoxia-induced angioproliferative retinopathy; test: Hypoxic vascular retinopathy mouse model: proliferation score on retinal flatmounts after intravitreal injection; type: in vivo, C57/B16J mice; design: key to blood vessel tufts: points summed over zones; Zone 2 max 4 P, Zones 3 and 4 max 12 P; avascular zone: scale not given here
# Protocol: Seven days old C57/B16J mice are put together with their nursing parent in a sealed container ventilated by a mixture of oxygen and compressed air to a final oxygen concentration of 75%±2% until day 12. Returned at room air, the animals develop a relative ischemia of the retina with neovascularization starting as early as day 14.
# On day 12, when animals returned from the oxygen incubation, a volume of 2.0 μl is injected in the eye using a glass pipette with a diameter of about 150 μm at its tip.
# For the intravitreal injection of a substance at day 12, mice are anesthetized by inhalation of isoflurane. Five days later the animals are sacrificed after perfusion with dextran-fluorescein and retinal flatmounts are prepared. The coded whole mounts allow to evaluate the vascular changes of the retinal blindly. The proliferation score includes quantification of the proliferation including the papilla, vascular development, vasoconstriction, retinal bleeding and tortuosity of the vessels, features also seen in human retinal disease.
# Of those, 8 animals died during hyperoxia or after injection, 2 animals are not perfused, 5 animals are paraffin embedded for evaluation of neurons, of which only three could be examined, and from 29 of these animals retinal flatmounts are prepared.
# Evaluation of the angioproliferative changes in the retinal preparations is performed in a masked way on coded preparations. […] The following features are taken into consideration: neovascularisation of the optic disc, blood vessel tufts formation, large clusters of blood vessel tufts, central vasoconstriction and tortuosity of the vessels. Retinal haemorrhages are not taken into account as they may also result from the intraocular injection.
# For each criteria, a defined number of points (P) is assigned, which are summed up to a total proliferation score. The higher the score, the worse the hypoxia induced retinopathy. In detail:
# Neovascularisation of the optic disc: either 1 or 0 points are assigned in case optic disc proliferation is measured (1 P) or absence (0 P).
# Blood vessel tufts formation: the score for blood vessel tufts is determined by dividing every clock hour of the preparation surface in 4 zones: Zone 1 (optic disc zone) is evaluated in addition; Zone 2: one point for every wing (maximal 4 P); Zone 3: one point for every clock hour (maximal 12 P); and Zone 4: one point for every clock hour (maximal 12 P). Thus, a maximum of 28 points is measured provided that no avascular areas exist, and a maximum of 12 points is calculated in case of complete avascularization.
# Large clusters of blood vessel tufts: every large cluster of blood vessel tufts covering more than 3 sectors is counted as one point. Thus, maximal 8 points can be measured provided that no avascular areas exist, and maximal 4 points are assignable for complete avascularization.
# Central vasoconstriction: 1 point is assigned to a vasoconstriction of zone 1 of greater than 50%; 1 point is allocated if the vasoconstriction is greater than 50% of every wing of zone 2 and 3. Thus, maximal 1 point can be assigned to zone 1, and maximal 4 points each for zones 2, 3 and 4. Since so far no vasoconstriction is ever observed for zone 4, a maximum of total 9 points (without zone 4) can be allotted.
# Tortuosity of the vessels: 2 points are assigned if less than one-third of the vessels are tortuous; if the amount of tortuous blood vessels is between one-third and two-thirds, 4 points are allocated, and in case more than two-thirds of the vessels are tortuous, than 6 points are given.
# Proliferation in avascular zones is never observed. This is in principle a mutual exclusion of criteria; the existence of vascular proliferations has a higher impact on the retinopathy score than large avascular areas. Therefore, the maximum score ever counted with this system is 38 points using a substance which is considered to enhance vascular proliferation.
# The severity of retinopathy varies from animal to animal. […]
# [3] = female monkeys, day 13 of dosing
# [4] = female monkeys, day −7 relative to start of dosing
# [5] = female monkeys, day −8 relative to start of dosing
# [6] = male monkeys, day −5 relative to start of dosing
# [7] = male monkeys, day −6 relative to start of dosing
# [8] = right eye, FGF23CTP intravitreal, individual animals, retinal flatmounts
# [9] = treated right eye (FGF23CTP) vs control left eye (PBS), DF 28
molecule,measurement,setting,value
"Leu8, Asp10, Lysll, A1a16, G1n18, Thr33, A1a34 human PTH 1-34 [PTS893, Leu8, Asp10, Lysll, A1a16, G1n18, Thr33, A1a34 human PTH 1-34 [hPTH(1-34)]]",CREAT,[1]; [3],5620 µmol/L and 8060 µmol/L
same,Ca2+,[1]; [3],20.05 mmol/L and 12.35 mmol/L
same,Cl−,[1]; [3],101 mmol/L and 133 mmol/L
same,D-PYR,[1]; [3],1356 nmol/L and 2036 nmol/L
same,LDH,[1]; [3],10.0 IU/L and 9.0 IU/L
same,Mg2+,[1]; [3],6.90 mmol/L and 5.90 mmol/L
same,NTx/Crea,[1]; [3],447 nME/mM and 705 nME/mM
same,Pyr/Crea,[1]; [3],241 nM/mM and 253 nM/mM
same,VOLUME,[1]; [3],52 mL and 42 mL
same,NTx/Crea,[1]; [4],576 nME/mM and 634 nME/mM
same,Pyr/Crea,[1]; [4],163 nM/mM and 181 nM/mM
same,CREAT,[1]; [5],19160 µmol/L and 14060 µmol/L
same,Ca2+,[1]; [5],11.50 mmol/L and 6.60 mmol/L
same,K+,[1]; [5],302 mmol/L and 164 mmol/L
same,LDH,[1]; [5],11.0 IU/L and 18.0 IU/L
same,Mg2+,[1]; [5],7.35 mmol/L and 4.00 mmol/L
same,Na+,[1]; [5],145 mmol/L and 118 mmol/L
same,Ca2+,"[1]; male monkeys, day 13 of dosing",7.55 mmol/L and 13.10 mmol/L
same,I.PHOS,"[1]; male monkeys, day 13 of dosing",0.10 mmol/L and 0.17 mmol/L
same,K+,"[1]; male monkeys, day 13 of dosing",107 mmol/L and 69 mmol/L
same,LDH,"[1]; male monkeys, day 13 of dosing",14.0 IU/L and 19.0 IU/L
same,Mg2+,"[1]; male monkeys, day 13 of dosing",8.70 mmol/L and 5.25 mmol/L
same,NAG,"[1]; male monkeys, day 13 of dosing",2.9 IU/l and 2.6 IU/l
same,NTx/Crea,"[1]; male monkeys, day 13 of dosing",621 nME/mM and 547 nME/mM
same,Pyr/Crea,"[1]; male monkeys, day 13 of dosing",214 nM/mM and 204 nM/mM
same,CREAT,[1]; [6],16160 µmol/L and 16120 µmol/L
same,CTx,[1]; [6],11865 µg/L and 20108 µg/L
same,D-PYR,[1]; [6],1660 nmol/L and 2278 nmol/L
same,NTx,[1]; [6],5403 nM BCE and 8757 nM BCE
same,NTx/Crea,[1]; [6],334 nME/mM and 543 nME/mM
same,Pyr/Crea,[1]; [6],103 nM/mM and 141 nM/mM
same,CREAT,[1]; [7],16160 µmol/L and 9940 µmol/L
same,Ca2+,[1]; [7],5.10 mmol/L and 3.50 mmol/L
same,K+,[1]; [7],86 mmol/L and 125 mmol/L
same,LDH,[1]; [7],7.0 IU/L and 9.0 IU/L
"FGF23CTP: unique 75-mer COOH-terminal peptide of FGF-23, SEQ ID NO: 2 (peptide, listed as Homo sapiens) HTRSAEDDSERDPLNVLKPRARMTPAPASCSQELPSAEDNSPMASDPLGVVRGGRVNTHAGGTGPEGCRPFAKFI","Proliferation score, Mean Difference (paired t-test, treated right eye vs PBS left eye)","[2]; 6 μg intravitreal, DF 28, P-Value 0.0375",−3.172
same,Effect on proliferative component of retinal angiopathy / proliferation score,"[2]; intravitreal injection, b229 p=0.018, b476 paired t-test p=0.04",significantly inhibited; also recorded: reaches statistical significance
same,avascular zone,[2]; [8],1 (7×) and 2 (4×) and 0 (3×) and 3 (7×) and 4 (4×) and 7 and 6 (2×) and 5
same,blood vessel tufts,[2]; [8],6 (4×) and 2 (3×) and 4 (3×) and 1 (2×) and 3 and 5 (2×) and 0 (2×) and 7 (4×) and 10 (3×) and 14 (2×) and 13 and 11 and 9
same,large clusters of prolif.,[2]; [8],0 (16×) and 1 (6×) and 2 (2×) and 3 (2×) and 4 (2×) and 5
same,proliferation sum,[2]; [8],7 (2×) and 2 (3×) and 4 (4×) and 1 (2×) and 6 (4×) and 5 and 0 (2×) and 8 (2×) and 10 (2×) and 11 and 17 and 12 (2×) and 18 (2×) and 14
same,tortuosity of vessels,[2]; [8],0 (8×) and 2 (7×) and 3 and 1 (9×) and 5 and 6 (2×) and 4
same,Paired t-test avascular zone: Mean Difference,[2]; [9],−0.034
same,Paired t-test proliferation sum: Mean Difference,[2]; [9],−2.724
same,Paired t-test tortuosity of the vessels: Mean Difference,[2]; [9],−0.517

# From patent US20130040882A1, “USE OF FIBROBLAST GROWTH FACTOR FRAGMENTS” (NOVARTIS AG, priority 2003, published 2013)
